The conditions of data set [1]: 200 g rats, gavage each day, 14 days; maximum dose group in which no rat has diarrhea on day 14.
Description: at step 2, continuing the step 1 for 14 days;
At step 1, 200 g rats are selected as experimental animal objects, and the 200 g rats are divided into six experimental groups and one control group, with each group including ten numbered rats; and the rats in the six experimental groups (namely, dose (1) experimental group, dose (2) experimental group, dose (3) experimental group, dose (4) experimental group, dose (5) experimental group and dose (6) experimental group) are gavaged with different doses of xylitol each day. The ten rats in each group are gavaged with the same dose.
At step 2, the step 1 is continued for 14 days.
Specifically, 50 g of xylitol was set as the reference value, and estimated values of the experimental range of the human body to xylitol were set to 20 g/d, 30 g/d, 40 g/d, 50 g/d, 60 g/d and 70 g/d (six groups in total) according to the reference value. According to the conversion formula of drug doses of experimental animal and human body, the daily experimental dose of xylitol of 200 g rats was respectively obtained as 0.36 g/d, 0.54 g/d, 0.71 g/d, 0.89 g/d, 1.07 g/d and 1.25 g/d (six groups in total), and then experiments were performed respectively.
Similarly, estimated values of the human body to L-arabinose were respectively set to 70 g/d, 80 g/d, 90 g/d, 100 g/d, 110 g/d and 120 g/d (six groups in total) as the experimental range. According to the conversion formula of drug doses of experimental animal and human body, the daily experimental dose of L-arabinose of 200 g rats was respectively obtained as 1.25 g/d, 1.43 g/d, 1.61 g/d, 1.79 g/d, 1.96 g/d and 2.14 g/d (six groups in total), and then experiments were performed respectively.
Similarly, estimated values of the human body to sorbitol were respectively set to 5 g/d, 10 g/d, 15 g/d, 20 g/d, 25 g/d and 30 g/d (six groups in total) as the experimental range. […]
The conditions of data set [2]: human daily intake, declared by some companies, no experimental data; cited from earlier work.
The nature of data set [3]: tolerated dose of a 70 kg human body converted from the rat maximum tolerated dose (K = 56.0). The conditions noted are these: rat dose N x conversion factor 56.0. The source says: wherein K is a conversion factor between a 70 kg human body and a 200 g rat, which is 56.0; the maximum tolerated dose N of the rat to xylitol and the tolerated dose R of the human body to the xylitol are both in the unit of g/d; or,
wherein K is a conversion factor between a 70 kg human body and a 200 g rat, which is 56.0. The maximum tolerated dose N of the rat to xylitol and the tolerated dose R of the human body to the xylitol are both in the unit of g/d; or,
In the specific implementation, the maximum tolerated dose of the human body to a certain sugar alcohol or functional sugar recorded in the existing data is used as a reference value firstly. Taking xylitol as an example, the existing companies have declared that the daily intake of xylitol should not exceed 50 g. 50 g of xylitol is set as the reference value, and fluctuation is performed based on the reference value to obtain an estimated value of the experimental range. […] The experiment is continued for 14 days. Considering the experimental results and verification results comprehensively, the maximum tolerated dose N of 200 g rats to xylitol is obtained.

Regarding `O=C[C@H](O)[C@@H](O)[C@@H](O)CO` [L-arabinose], the “maximum tolerated dose N of 200 g rat” value in data set [1] is 1.61 g/day. In addition, the “daily intake should not exceed” value in data set [2] is no more than 120 g. In data set [3], the “maximum tolerated dose R of the human body” value was 90 g/day.
Consider `OC[C@@H](O)[C@@H](O)[C@H](O)[C@@H](O)CO` [sorbitol], for which, in data set [1], the “maximum tolerated dose N of 200 g rat” value came to 0.36 g/day. In data set [3], the “maximum tolerated dose R of the human body” value came to 20 g/day.
On the same counts, the results for `OC[C@@H](O)[C@H](O)[C@@H](O)CO` [xylitol] are 0.71 g/day and 40 g/day.

The record behind these values is patent publication US20210379204A1, “METHOD FOR CALCULATING TOLERANCE DOSE OF HUMAN BODY TO SUGAR ALCOHOL AND FUNCTIONAL SUGAR” (Zhejiang Huakang Pharmaceutical Co., Ltd., priority 2018, published 2021).
